Results on 27 compounds are retold here after US20230365592A1 (Agios Pharmaceuticals, Inc., priority 2022, published 2023).

The target in the first experiment is T1, human PAH with the R408W mutation (Homo sapiens, UniProt P00439, R408W).
T1 construct: expressed in transfected cells
T1 sequence (P00439 1-452 R408W): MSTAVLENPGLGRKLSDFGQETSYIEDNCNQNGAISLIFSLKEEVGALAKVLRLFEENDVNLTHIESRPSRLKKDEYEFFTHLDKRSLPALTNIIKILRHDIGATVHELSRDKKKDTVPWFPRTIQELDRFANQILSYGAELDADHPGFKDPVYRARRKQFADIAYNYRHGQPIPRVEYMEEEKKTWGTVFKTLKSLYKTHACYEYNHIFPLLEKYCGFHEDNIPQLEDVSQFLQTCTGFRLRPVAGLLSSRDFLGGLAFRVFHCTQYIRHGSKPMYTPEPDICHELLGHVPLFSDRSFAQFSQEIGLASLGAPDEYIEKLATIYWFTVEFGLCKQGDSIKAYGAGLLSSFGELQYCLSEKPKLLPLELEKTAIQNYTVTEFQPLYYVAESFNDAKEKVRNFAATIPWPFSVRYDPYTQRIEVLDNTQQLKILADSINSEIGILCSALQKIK
In words: Cell Based Phenylalanine Flux Assay.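 Further: after compound treatment, cells received sepiapterin plus isotope-labelled Phenylalanine for 4 hours, then labelled Tyrosine in the medium was quantified, 10-point 2-fold dilution series run in duplicate.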 Conditions: A375 cells expressing R408W PAH; 24 hrs with compound, then 20 µM sepiapterin and 800 µM 13C9,15N-Phenylalanine for 4 hours; 13C-Tyrosine by LC-MS; average where tested multiple times; read-out: AC50.
Broadly, the AC50 is the concentration giving half of the maximal activity seen. For `Cc1cccn2nc(C3c4nc[nH]c4CCN3C(=O)C3CCC3)cc12` (stereo not drawn), the AC50 is over 5000 nM. On the same count and under the same terms, under `O=C(c1ccn(-c2ccccn2)n1)N1CCc2[nH]cnc2C1c1cc2c(F)cccn2n1` (stereo not drawn) stands 1000 to 5000 nM; under `Cc1nc(C(C)O)oc1C(=O)N1CCc2[nH]cnc2C1c1cc2cccc(C)n2n1` (stereo not drawn), 1000 to 5000 nM; under `Cn1cc(-c2nnc(N3CCc4[nH]cnc4[C@H]3c3cc4c(F)cccn4n3)o2)cn1` (single isomer, unassigned), 1000 to 5000 nM.

The experiment is the same for the next values; noted with them: A375 cells expressing human PAH R408W; 24 hrs compound incubation; 13C-Tyrosine by LC-MS; average where tested multiple times; read-out: AC50.
`Cc1cccnc1-c1nnc(N2CCc3[nH]cnc3[C@@H]2c2cc3c(C)cccn3n2)o1` [Example 2268, (R)-2-(4-(4-methylpyrazolo[1,5-a]pyridin-2-yl)-1,4,6,7-tetrahydro-5H-imidazo[4,5-c]pyridin-5-yl)-5-(3-methylpyridin-2-yl)-1,3,4-oxadiazole]: the AC50 is over 5000 nM. On the same count and under the same terms, under `Cc1cccnc1-c1nnc(N2CCc3[nH]cnc3[C@H]2c2cc3c(C4CC4)cccn3n2)o1` [Example 2283, (S)-2-(4-(4-cyclopropylpyrazolo[1,5-a]pyridin-2-yl)-1,4,6,7-tetrahydro-5H-imidazo[4,5-c]pyridin-5-yl)-5-(3-methylpyridin-2-yl)-1,3,4-oxadiazole] stands under 500 nM; under `FC(F)(F)c1nnc(N2CCc3[nH]cnc3[C@H]2c2cc3c(Cl)cccn3n2)o1` [Example 1849, (S)-2-(4-(4-chloropyrazolo[1,5-a]pyridin-2-yl)-6,7-dihydro-1H-imidazo[4,5-c]pyridin-5(4H)-yl)-5-(trifluoromethyl)-1,3,4-oxadiazole], under 500 nM. The same measure, in the same setting: under `Cc1cccn2nc([C@@H]3c4nc[nH]c4CCN3C(=O)c3nc4ccccc4o3)cc12` [Example 2020, (S)-benzo[d]oxazol-2-yl(4-(4-methylpyrazolo[1,5-a]pyridin-2-yl)-1,4,6,7-tetrahydro-5H-imidazo[4,5-c]pyridin-5-yl)methanone] stands under 500 nM; under `Cc1cccn2nc([C@@H]3c4nc[nH]c4CCN3C(=O)[C@@H]3CC3(F)F)cc12` [Example 2028, ((S)-2,2-difluorocyclopropyl)((S)-4-(4-methylpyrazolo[1,5-a]pyridin-2-yl)-1,4,6,7-tetrahydro-5H-imidazo[4,5-c]pyridin-5-yl)methanone], under 500 nM; under `O=C(c1nnc(-c2ccccn2)o1)N1CCc2[nH]cnc2[C@H]1c1cc2ccc(C(F)(F)F)cn2n1` [Example 2414, (S)-(5-(pyridin-2-yl)-1,3,4-oxadiazol-2-yl)(4-(6-(trifluoromethyl)pyrazolo[1,5-a]pyridin-2-yl)-6,7-dihydro-1H-imidazo[4,5-c]pyridin-5(4H)-yl)methanone], 1000 to 5000 nM.

The same experiment, now with this note: A375 cells expressing human R408W PAH; 24 hrs compound incubation; 13C-Tyrosine by LC-MS; average where tested multiple times; read-out: AC50.
`O=C(c1nnc(-c2ccccn2)o1)N1CCc2[nH]cnc2[C@H]1c1cc2c(F)cccn2n1` [Example 733, (S)-(4-(4-fluoropyrazolo[1,5-a]pyridin-2-yl)-6,7-dihydro-1H-imidazo[4,5-c]pyridin-5(4H)-yl)(5-(pyridin-2-yl)-1,3,4-oxadiazol-2-yl)methanone]: the half-maximal activity concentration (AC50) was under 500 nM.

Consider `Cc1cccc(-c2nnc(C(=O)N3CCc4[nH]cnc4[C@H]3c3cc4c(C(F)F)cccn4n3)o2)n1` [Example 1465, (S)-(4-(4-(difluoromethyl)pyrazolo[1,5-a]pyridin-2-yl)-6,7-dihydro-1H-imidazo[4,5-c]pyridin-5(4H)-yl)(5-(6-methylpyridin-2-yl)-1,3,4-oxadiazol-2-yl)methanone], for which the AC50 is under 500 nM. Turning to `C[C@H](O)c1nc(C(F)F)c(C(=O)N2CCc3[nH]cnc3[C@@H]2c2cc3cccc(C(F)(F)F)n3n2)o1` [Example 1201, (4-(difluoromethyl)-2-((S)-1-hydroxyethyl)oxazol-5-yl)((R)-4-(7-(trifluoromethyl)pyrazolo[1,5-a]pyridin-2-yl)-6,7-dihydro-1H-imidazo[4,5-c]pyridin-5(4H)-yl)methanone], the AC50 was in the range of 500 to 1000 nM.

With `Clc1cccn2nc([C@@H]3c4nc[nH]c4CCN3c3nnc(-c4ccccn4)o3)cc12` [Example 1623, (S)-2-(4-(4-chloropyrazolo[1,5-a]pyridin-2-yl)-6,7-dihydro-1H-imidazo[4,5-c]pyridin-5(4H)-yl)-5-(pyridin-2-yl)-1,3,4-oxadiazole], the AC50 was under 500 nM. As for `CC(C)(C)c1nnc(C(=O)N2CCc3[nH]cnc3[C@H]2c2cc3c(OC(F)F)cccn3n2)o1` [Example 1687, (S)-(5-(tert-butyl)-1,3,4-oxadiazol-2-yl)(4-(4-(difluoromethoxy)pyrazolo[1,5-a]pyridin-2-yl)-6,7-dihydro-1H-imidazo[4,5-c]pyridin-5(4H)-yl)methanone], the AC50 lay in the range of 500 to 1000 nM.

Consider `O=C(c1nnc(C2CCC2)o1)N1CCc2[nH]cnc2[C@H]1c1cc2cccc(C(F)F)n2n1` [Example 1573, (S)-(5-cyclobutyl-1,3,4-oxadiazol-2-yl)(4-(7-(difluoromethyl)pyrazolo[1,5-a]pyridin-2-yl)-6,7-dihydro-1H-imidazo[4,5-c]pyridin-5(4H)-yl)methanone], for which the concentration at half-maximal activity (AC50) fell in the range of 500 to 1000 nM.

On to `Cc1c([C@H]2c3nc[nH]c3CCN2C(=O)c2ocnc2C(F)F)nn2ccccc12` [Example 785, (R)-(4-(difluoromethyl)oxazol-5-yl)(4-(3-methylpyrazolo[1,5-a]pyridin-2-yl)-6,7-dihydro-1H-imidazo[4,5-c]pyridin-5(4H)-yl)methanone], for which the AC50 is 1000 to 5000 nM. Take `Cn1nc(Cl)nc1C(=O)N1CCc2[nH]cnc2[C@@H]1c1cc2c(F)cccn2n1` [Example 763, (R)-(3-chloro-1-methyl-1H-1,2,4-triazol-5-yl)(4-(4-fluoropyrazolo[1,5-a]pyridin-2-yl)-6,7-dihydro-1H-imidazo[4,5-c]pyridin-5(4H)-yl)methanone]: the AC50 was in the range of 1000 to 5000 nM.

With `O=C(c1nnc(-c2cnn(C(F)F)c2)o1)N1CCc2[nH]cnc2[C@@H]1c1cc2c(C(F)(F)F)cccn2n1` [Example 907, (R)-(5-(1-(difluoromethyl)-1H-pyrazol-4-yl)-1,3,4-oxadiazol-2-yl)(4-(4-(trifluoromethyl)pyrazolo[1,5-a]pyridin-2-yl)-6,7-dihydro-1H-imidazo[4,5-c]pyridin-5(4H)-yl)methanone], the AC50 was over 5000 nM.

Turning to `COc1cccn2nc([C@H]3c4nc[nH]c4CCN3C(=O)c3cnn4cc(C5CC5)ccc34)cc12` [Example 1789, (R)-(6-cyclopropylpyrazolo[1,5-a]pyridin-3-yl)(4-(4-methoxypyrazolo[1,5-a]pyridin-2-yl)-6,7-dihydro-1H-imidazo[4,5-c]pyridin-5(4H)-yl)methanone], the AC50 is over 5000 nM. The same measure, in the same setting: under `CC(C)(F)c1nnc(C(=O)N2CCc3[nH]cnc3[C@H]2c2cc3c(OC(F)(F)F)cccn3n2)o1` [Example 1726, (S)-(5-(2-fluoropropan-2-yl)-1,3,4-oxadiazol-2-yl)(4-(4-(trifluoromethoxy)pyrazolo[1,5-a]pyridin-2-yl)-6,7-dihydro-1H-imidazo[4,5-c]pyridin-5(4H)-yl)methanone] stands 500 to 1000 nM; under `O=C(c1nnc(-c2ncccc2F)o1)N1CCc2[nH]cnc2[C@@H]1c1cc2c(C(F)F)cccn2n1` [Example 1427, (R)-(4-(4-(difluoromethyl)pyrazolo[1,5-a]pyridin-2-yl)-6,7-dihydro-1H-imidazo[4,5-c]pyridin-5(4H)-yl)(5-(3-fluoropyridin-2-yl)-1,3,4-oxadiazol-2-yl)methanone], over 5000 nM. On the same count and under the same terms, under `Cn1ccc(-c2ccc3c(C(=O)N4CCc5[nH]cnc5[C@H]4c4cc5c(C(F)(F)F)cccn5n4)cnn3c2)n1` [Example 1596, (S)-(6-(1-methyl-1H-pyrazol-3-yl)pyrazolo[1,5-a]pyridin-3-yl)(4-(4-(trifluoromethyl)pyrazolo[1,5-a]pyridin-2-yl)-6,7-dihydro-1H-imidazo[4,5-c]pyridin-5(4H)-yl)methanone] stands under 500 nM; under `Cc1c([C@@H]2c3nc[nH]c3CCN2C(=O)c2ocnc2C(F)F)nn2ccccc12` [Example 784, (S)-(4-(difluoromethyl)oxazol-5-yl)(4-(3-methylpyrazolo[1,5-a]pyridin-2-yl)-6,7-dihydro-1H-imidazo[4,5-c]pyridin-5(4H)-yl)methanone], under 500 nM; under `O=C(c1nnc(-c2ncccc2F)o1)N1CCc2[nH]cnc2[C@@H]1c1cc2c(F)cccn2n1` [Example 790, (R)-(4-(4-fluoropyrazolo[1,5-a]pyridin-2-yl)-6,7-dihydro-1H-imidazo[4,5-c]pyridin-5(4H)-yl)(5-(3-fluoropyridin-2-yl)-1,3,4-oxadiazol-2-yl)methanone], over 5000 nM. Regarding `CN(C)Cc1ccc2c(C(=O)N3CCc4[nH]cnc4[C@@H]3c3cc4c(C(F)(F)F)cccn4n3)cnn2c1` [Example 1547, (R)-(6-((dimethylamino)methyl)pyrazolo[1,5-a]pyridin-3-yl)(4-(4-(trifluoromethyl)pyrazolo[1,5-a]pyridin-2-yl)-6,7-dihydro-1H-imidazo[4,5-c]pyridin-5(4H)-yl)methanone], the AC50 was over 5000 nM.

Take `Cc1nc([C@@H](C)O)oc1C(=O)N1CCc2[nH]cnc2[C@@H]1c1cc2c(F)cccn2n1` [Example 727, ((R)-4-(4-fluoropyrazolo[1,5-a]pyridin-2-yl)-6,7-dihydro-1H-imidazo[4,5-c]pyridin-5(4H)-yl)(2-((R)-1-hydroxyethyl)-4-methyloxazol-5-yl)methanone]: the AC50 fell in the range of 1000 to 5000 nM.
